One block for each molecule: values may come before it.
Legend:
[1] = molecular target: CRBN (Homo sapiens, UniProt Q96SW2); experiment: CRBN-target-binding assay; settings: HTRF
[2] = system: CCL3 and CCL4 secretion by TMD-8 cells; experiment: CCL3 & CCL4 ELISA in anti-IgM stimulated TMD-8 cells; format: cell-based, human; settings: 10 nM for 24 hours, 10 μg/mL anti-IgM 8 hours
[3] = system: WT and mutant BTK (E41K, T474I, C481S, C481R, C481T, C481Y, C481F, L528W); experiment: WT or mutant BTK transiently expressed in HEK293 cells, immunoblotting; format: cell-based; settings: HEK293, 0.1, 1 and 10 μM, 24 hours
[4] = system: TMD-8 BTK C481S cells; experiment: Cell proliferation, C481S BTK-overexpressing TMD-8 cells; format: cell-based, human
[5] = system: CRBN neosubstrates (Ikaros, Helios, Aiolos, GSPT1, CK1-a); experiment: Immunoblotting of CRBN neosubstrates in hematological cell lines; format: cell-based; settings: 100 nM, 24 or 72 hours

Sequence of CRBN (Q96SW2 whole entry): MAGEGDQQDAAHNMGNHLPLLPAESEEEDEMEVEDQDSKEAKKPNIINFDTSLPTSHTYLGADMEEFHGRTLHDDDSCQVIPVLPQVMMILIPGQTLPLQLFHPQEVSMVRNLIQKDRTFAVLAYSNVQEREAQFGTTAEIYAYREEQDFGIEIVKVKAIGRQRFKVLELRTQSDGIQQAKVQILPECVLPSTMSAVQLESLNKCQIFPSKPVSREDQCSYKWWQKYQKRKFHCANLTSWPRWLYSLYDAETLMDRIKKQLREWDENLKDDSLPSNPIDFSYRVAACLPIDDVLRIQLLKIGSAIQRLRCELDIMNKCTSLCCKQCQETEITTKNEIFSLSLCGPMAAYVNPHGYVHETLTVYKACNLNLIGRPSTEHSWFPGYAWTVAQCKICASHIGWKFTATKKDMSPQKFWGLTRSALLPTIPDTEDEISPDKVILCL

binding to CRBN [1]: did not bind to CRBN
SMILES: O=C(c1ccc(Oc2ccccc2)cc1Cl)c1c[nH]c2ncnc(N[C@@H]3CC[C@@H](CO)OC3)c12 [ARQ-531]
CCL3 or CCL4 secretion [2]: little or no effect
BTK phosphorylation in C481S and E41K BTK mutants [3]: substantially attenuated

SMILES: Nc1ncnc2c1c(-c1ccc(Oc3ccccc3)cc1)nn2C1CCN(CCOCCOCC(=O)Nc2ccc3c(c2)C(=O)N(C2CCC(=O)NC2=O)C3=O)CC1 (centres unmarked) [MT-802]
CCL3 or CCL4 secretion [2]: little or no effect
degradation of WT and mutant BTK [3]: can also degrade E41K, C481R, C481Y, C481T, and C481F BTK mutants

SMILES: CC#CC(=O)N1CCC[C@H]1c1nc(-c2ccc(C(=O)Nc3ccccn3)cc2)c2c(N)nccn12 [acalabrutinib]
CCL3 or CCL4 secretion [2]: significantly abrogated CCL3 or CCL4 secretion

binding to CRBN [1]: did not bind to CRBN
SMILES: C=CC(=O)N1CCC[C@@H](n2nc(-c3ccc(Oc4ccccc4)cc3)c3c(N)ncnc32)C1 [ibrutinib]
inhibition of proliferation of C481S BTK-overexpressing TMD-8 cells [4]: resistance
CCL3 or CCL4 secretion [2]: significantly abrogated CCL3 or CCL4 secretion

SMILES: O=C1CCC(N2C(=O)c3ccccc3C2=O)C(=O)N1 (centres unmarked) [thalidomide]
change in neosubstrates of U2932 and WSU-WM [5]: No significant change
degradation of CRBN neosubstrates in any of the tested cell lines [5]: did not lead to any significant degradation
